In BigSolDB 2.1:

CC(C)(c1cc(Br)c(O)c(Br)c1)c1cc(Br)c(O)c(Br)c1
solubility (mole fraction)
Conditions	in ethanol	in ethyl acetate	in isopropanol	in methanol	in n-butanol	in n-butyl acetate	in n-pentanol	in n-propanol	in sec-butanol
298.15 K	0.0511	0.139	0.0242	0.0499	0.0511	0.142	0.0567	0.0452	0.0262
303.15 K	0.0516	0.139	0.0259	0.0511	0.0522	0.142	0.058	0.046	0.0288
308.15 K	0.0534	0.141	0.0284	0.0524	0.0542	0.144	0.0596	0.0476	0.0321
313.15 K	0.0558	0.144	0.031	0.0546	0.0573	0.146	0.0609	0.0502	0.0364
318.15 K	0.0577	0.147	0.0343	0.0564	0.0602	0.148	0.0634	0.0522	0.0399
323.15 K	0.0616	0.152	0.0381	0.0585	0.0642	0.151	0.0669	0.0553	0.045
328.15 K	0.0642	0.157	0.0435	0.0615	0.0678	0.155	0.0705	0.059	0.0502
333.15 K	0.0693	0.161	0.0484	–	0.0717	0.159	0.0752	0.063	0.056
